Results as given in patent US12447153B2, “HER2 mutation inhibitors” (Array BioPharma Inc., priority 2021, dated 2025).

Columns and labels:
EGFR wild type (EGFR WT) = EGFR wild type (EGFR WT) (Homo sapiens (Human), UniProt P00533); assay: Cellular Phosphorylation Assay, Assay 5 (EGF-stimulated EGFR phosphorylation, NIH 3T3 cells); assay type: cell-based
EGFR = EGFR (Homo sapiens (Human), UniProt P00533); assay: ErbB Enzyme Assay (HTRF KinEASE-TK), Assay 3; assay type: biochemical
ErbB2 WT = ErbB2 WT (Homo sapiens (Human), UniProt P04626); assay: ErbB Enzyme Assay (HTRF KinEASE-TK), Assay 2; assay type: biochemical
[1] = molecular target: ErbB2 with Exon 20 YVMA insertion (HER2-YVMA) (Homo sapiens (Human), UniProt P04626, INS775YVMA); assay: Cellular Phosphorylation Assay, Assay 4 (constitutive ErbB2 phosphorylation, NIH 3T3 cells); assay type: cell-based
BCRP = BCRP (Homo sapiens (Human), UniProt Q9UNQ0); assay: BCRP MDCKII efflux assay (Assay 7); assay type: in vitro ADME; details: dog; efflux ratio Papp(B-A)/Papp(A-B), BCRP MDCKII cells; read-out: Assay 7 Pe Ratio
Sequence of BCRP (Q9UNQ0 whole entry): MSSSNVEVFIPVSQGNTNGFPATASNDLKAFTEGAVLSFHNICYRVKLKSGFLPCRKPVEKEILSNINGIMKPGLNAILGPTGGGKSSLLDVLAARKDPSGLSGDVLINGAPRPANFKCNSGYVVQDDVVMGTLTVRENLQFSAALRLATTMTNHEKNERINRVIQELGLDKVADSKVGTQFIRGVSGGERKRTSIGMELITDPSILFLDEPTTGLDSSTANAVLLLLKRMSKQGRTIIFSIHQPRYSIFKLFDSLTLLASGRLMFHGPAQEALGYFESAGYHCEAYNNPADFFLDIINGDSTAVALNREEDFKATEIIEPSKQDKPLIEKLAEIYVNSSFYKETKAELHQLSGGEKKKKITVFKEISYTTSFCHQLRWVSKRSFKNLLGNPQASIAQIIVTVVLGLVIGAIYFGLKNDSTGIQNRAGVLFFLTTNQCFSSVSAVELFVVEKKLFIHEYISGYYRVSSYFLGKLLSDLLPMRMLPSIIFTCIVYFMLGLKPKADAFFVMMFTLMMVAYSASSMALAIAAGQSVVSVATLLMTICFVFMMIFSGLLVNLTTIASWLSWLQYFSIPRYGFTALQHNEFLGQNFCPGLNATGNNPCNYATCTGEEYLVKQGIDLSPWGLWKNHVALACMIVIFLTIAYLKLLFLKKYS
Description: Assay conditions included with and without the BCRP-specific inhibitor, KO143, at a concentration of 0.3 μM to ascertain the contribution of BCRP to the efflux value of the test compound.
Final organic concentration in the assay was 1%.

MDR1 (P-gp) = MDR1 (P-gp) (Homo sapiens (Human), UniProt P08183); assay: in vitro; details: pig, LLC-PK1
Sequence of MDR1 (P-gp) (P08183 whole entry): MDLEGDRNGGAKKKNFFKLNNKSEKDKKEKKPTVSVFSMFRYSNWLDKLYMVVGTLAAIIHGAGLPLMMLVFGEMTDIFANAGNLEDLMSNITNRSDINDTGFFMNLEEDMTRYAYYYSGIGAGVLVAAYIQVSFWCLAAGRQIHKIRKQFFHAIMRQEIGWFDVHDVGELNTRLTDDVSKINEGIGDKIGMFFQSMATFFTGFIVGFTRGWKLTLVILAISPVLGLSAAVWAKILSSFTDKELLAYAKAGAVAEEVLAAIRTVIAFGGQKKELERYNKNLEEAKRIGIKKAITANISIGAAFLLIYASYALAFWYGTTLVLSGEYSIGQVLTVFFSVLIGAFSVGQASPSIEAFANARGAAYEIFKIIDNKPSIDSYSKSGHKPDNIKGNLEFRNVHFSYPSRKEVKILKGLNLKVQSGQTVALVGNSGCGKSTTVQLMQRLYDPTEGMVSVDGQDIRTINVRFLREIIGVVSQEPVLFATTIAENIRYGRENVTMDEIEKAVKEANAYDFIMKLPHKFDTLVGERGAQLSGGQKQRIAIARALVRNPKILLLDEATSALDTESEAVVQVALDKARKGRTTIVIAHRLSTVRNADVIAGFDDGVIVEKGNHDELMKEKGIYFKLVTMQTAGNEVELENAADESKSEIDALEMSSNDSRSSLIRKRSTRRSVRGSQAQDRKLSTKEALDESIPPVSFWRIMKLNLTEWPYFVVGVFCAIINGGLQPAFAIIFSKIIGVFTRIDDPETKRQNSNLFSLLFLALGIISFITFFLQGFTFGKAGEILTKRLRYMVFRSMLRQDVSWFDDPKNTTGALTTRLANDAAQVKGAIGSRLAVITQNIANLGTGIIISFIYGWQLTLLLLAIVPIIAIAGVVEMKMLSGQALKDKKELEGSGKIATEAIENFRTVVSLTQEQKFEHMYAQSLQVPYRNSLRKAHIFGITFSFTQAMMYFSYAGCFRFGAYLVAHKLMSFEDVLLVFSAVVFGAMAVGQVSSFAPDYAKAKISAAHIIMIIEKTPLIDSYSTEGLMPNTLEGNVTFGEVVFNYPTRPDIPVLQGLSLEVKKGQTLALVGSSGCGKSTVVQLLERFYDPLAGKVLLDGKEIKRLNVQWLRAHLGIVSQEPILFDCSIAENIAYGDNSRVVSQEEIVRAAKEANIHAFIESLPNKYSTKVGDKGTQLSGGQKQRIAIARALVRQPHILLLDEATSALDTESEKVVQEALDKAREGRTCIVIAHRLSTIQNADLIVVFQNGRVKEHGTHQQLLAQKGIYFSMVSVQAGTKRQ

[2] = EGF-stimulated EGFR WT phosphorylation
[3] = cellular EGFR WT phosphorylation, EGF-stimulated
[4] = cellular ErbB2 YVMA phosphorylation

Sequence of EGFR wild type (EGFR WT) (P00533 25-1210): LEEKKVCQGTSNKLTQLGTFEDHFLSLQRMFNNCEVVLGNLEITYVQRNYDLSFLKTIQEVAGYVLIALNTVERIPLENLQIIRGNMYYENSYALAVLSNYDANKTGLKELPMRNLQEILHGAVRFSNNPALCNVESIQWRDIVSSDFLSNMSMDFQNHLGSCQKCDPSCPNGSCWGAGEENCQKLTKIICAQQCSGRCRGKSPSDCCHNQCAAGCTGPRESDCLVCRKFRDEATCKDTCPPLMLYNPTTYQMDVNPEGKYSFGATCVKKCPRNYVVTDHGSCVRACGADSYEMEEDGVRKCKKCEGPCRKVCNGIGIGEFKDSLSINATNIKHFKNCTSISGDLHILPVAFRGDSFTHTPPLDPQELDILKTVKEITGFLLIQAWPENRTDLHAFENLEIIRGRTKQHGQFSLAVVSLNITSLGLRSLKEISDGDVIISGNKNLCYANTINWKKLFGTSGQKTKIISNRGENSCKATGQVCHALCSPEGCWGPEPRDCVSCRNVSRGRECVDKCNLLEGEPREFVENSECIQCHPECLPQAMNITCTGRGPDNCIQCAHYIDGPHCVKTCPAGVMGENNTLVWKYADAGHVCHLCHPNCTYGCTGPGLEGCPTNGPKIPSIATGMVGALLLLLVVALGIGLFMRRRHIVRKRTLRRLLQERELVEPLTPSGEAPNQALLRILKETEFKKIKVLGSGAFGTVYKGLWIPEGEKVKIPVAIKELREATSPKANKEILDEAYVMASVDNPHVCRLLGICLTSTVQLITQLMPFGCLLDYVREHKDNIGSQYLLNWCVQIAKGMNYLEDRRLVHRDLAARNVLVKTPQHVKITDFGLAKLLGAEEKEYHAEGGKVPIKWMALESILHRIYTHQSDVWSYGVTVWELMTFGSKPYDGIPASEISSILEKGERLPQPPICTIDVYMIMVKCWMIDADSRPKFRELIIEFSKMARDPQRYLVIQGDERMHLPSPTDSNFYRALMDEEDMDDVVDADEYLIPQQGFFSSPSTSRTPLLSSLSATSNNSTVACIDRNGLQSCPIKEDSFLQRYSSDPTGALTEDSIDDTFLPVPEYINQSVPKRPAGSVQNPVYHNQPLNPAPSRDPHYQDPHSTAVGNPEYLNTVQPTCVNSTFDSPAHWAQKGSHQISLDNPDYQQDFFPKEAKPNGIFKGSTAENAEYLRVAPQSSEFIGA
Sequence of EGFR (P00533 25-1210): as above

Compound | IC50 (EGFR wild type (EGFR WT); [2]) | IC50 (EGFR; EGFR enzyme) | IC50 (ErbB2 WT; ErbB2 WT enzyme) | IC50 ([1]; ErbB2 YVMA phosphorylation) | efflux ratio at 2 h, 1 µM (BCRP) | efflux ratio at 2 h, 1 µM (MDR1 (P-gp)) | IC50 (EGFR wild type (EGFR WT); [3]) | IC50 (EGFR; EGFR enzyme assay) | IC50 (ErbB2 WT; ErbB2 WT enzyme assay) | IC50 [1, 4]
C=CC(=O)N1CCCN(c2ccc3ncnc(Nc4ccc(Oc5ccc6c(c5)ncn6C)c(C)c4F)c3n2)CC1(C)C [Example 69, 1-(4-(4-((2-fluoro-3-methyl-4-((1-methyl-1H-benzo[d]imidazol-5-yl)oxy)phenyl)amino)pyrido[3,2-d]pyrimidin-6-yl)-2,2-dimethyl-1,4-diazepan-1-yl)prop-2-en-1-one] | ≥ 5000 nM | ≥ 10000 nM | 141 nM | 19.9 nM | 2.4 | 3 | – | – | – | –
C=CC(=O)N1CCN(c2ccc3ncnc(Nc4ccc(Oc5cnc6c(c5)ncn6C)c(Cl)c4)c3n2)CC1(C)C [Example 249] | 2050 nM | 1330 nM | 11.8 nM | 8.7 nM | 5.9 | 1.4 | – | – | – | –
C=CC(=O)N1CCN(c2ccc3ncnc(Nc4ccc(Oc5cnc6c(c5)ncn6C)c(C)c4F)c3n2)C[C@H]1C [Example 433] | – | – | – | – | 3.8 | 1.1 | 2890 nM | 4830 nM | 101 nM | 9.4 nM
C=CC(=O)N1CC[C@@H]2C[C@H]1CN2c1ccc2ncnc(Nc3cc(C)c(Oc4ccn5ncnc5c4)cc3F)c2n1 [Example 332] | – | – | – | – | 3.2 | 1.2 | 341 nM | 196 nM | 10.9 nM | 5.9 nM
C=CC(=O)N1[C@H](C)CN(c2ccc3ncnc(Nc4cc(C)c(Oc5ccc6c(c5)ncn6C)cc4F)c3n2)C[C@@H]1C [Example 112, 1-((2S,6R)-4-(4-((2-fluoro-5-methyl-4-((1-methyl-1H-benzo[d]imidazol-5-yl)oxy)phenyl)amino)pyrido[3,2-d]pyrimidin-6-yl)-2,6-dimethylpiperazin-1-yl)prop-2-en-1-one] | ≥ 5000 nM | 3330 nM | 57.5 nM | 19.8 nM | 5.2 | 1.4 | – | – | – | –
C=CC(=O)N1CCCC(c2ccc3ncnc(Nc4ccc(Oc5ccn6ncnc6c5)c(C)c4)c3n2)CC1 (stereo not drawn) [Example 401] | – | – | – | – | 5.5 | 1.5 | ≥ 5000 nM | 2720 nM | 9.2 nM | 30 nM
C=CC(=O)N1CCN(c2ccc3ncnc(Nc4cc(C)c(Oc5cnc6c(c5)ncn6C)cc4F)c3n2)C[C@H]1C1CC1 [Example 356] | – | – | – | – | 4.8 | 0.9 | ≥ 5000 nM | ≥ 10000 nM | 234 nM | 27.1 nM
C=CC(=O)N1CC[C@@H]2C[C@H]1CN2c1ccc2ncnc(Nc3cc(Cl)c(Oc4ccn5ncnc5c4)cc3F)c2n1 [Example 177, 1-((1 S,5R)-6-(4-((4-([1,2,4]triazolo[1,5-a]pyridin-7-yloxy)-5-chloro-2-fluorophenyl)amino)pyrido[3,2-d]pyrimidin-6-yl)-2,6-diazabicyclo[3.2.1]octan-2-yl)prop-2-en-1-one] | 156 nM | 129 nM | 9.7 nM | 5.7 nM | 3.6 | 1.9 | – | – | – | –
C=CC(=O)N1C[C@H]2C[C@H](c3ccc4ncnc(Nc5ccc(Oc6ccc7c(c6)ncn7C)c(C)c5F)c4n3)C[C@H]2C1 [Example 138, 1-((3aR,5s,6aS)-5-(4-((2-fluoro-3-methyl-4-((1-methyl-1H-benzo[d]imidazol-5-yl)oxy)phenyl)amino)pyrido[3,2-d]pyrimidin-6-yl)hexahydrocyclopenta[c]pyrrol-2(1H)-yl)prop-2-en-1-one] | ≥ 5000 nM | 4170 nM | 22.1 nM | 25.1 nM | 1.8 | 6.8 | – | – | – | –
C=CC(=O)N1CCN(c2ccc3ncnc(Nc4cc(C)c(Oc5ccc6c(c5)ncn6C)cc4F)c3n2)CC1(C)C [Example 82, 1-(4-(4-((2-fluoro-5-methyl-4-((1-methyl-1H-benzo[d]imidazol-5-yl)oxy)phenyl)amino)pyrido[3,2-d]pyrimidin-6-yl)-2,2-dimethylpiperazin-1-yl)prop-2-en-1-one] | 4400 nM | 7320 nM | 58.2 nM | 12.6 nM | 3.9 | 2 | – | – | – | –
C=CC(=O)N1CC[C@H](c2ccc3ncnc(Nc4ccc(Oc5ccc6c(c5)ncn6C)c(C)c4F)c3n2)CC(C)(C)C1 (racemic) [Example 140, rac-(R)-1-(5-(4-((2-fluoro-3-methyl-4-((1-methyl-1H-benzo[d]imidazol-5-yl)oxy)phenyl)amino)pyrido[3,2-d]pyrimidin-6-yl)-3,3-dimethylazepan-1-yl)prop-2-en-1-one] | ≥ 5000 nM | ≥ 10000 nM | 225 nM | 31.1 nM | 1.9 | 1.2 | – | – | – | –
C=CC(=O)N1C[C@H]2CC[C@@H]1C[C@H]2c1ccc2ncnc(Nc3ccc(Oc4ccn5ncnc5c4)c(C)c3F)c2n1 (racemic) [Example 218, rac-1-((1R,4S,5R)-5-(4-((4-([1,2,4]triazolo[1,5-a]pyridin-7-yloxy)-2-fluoro-3-methylphenyl)amino)pyrido[3,2-d]pyrimidin-6-yl)-2-azabicyclo[2.2.2]octan-2-yl)prop-2-en-1-one] | ≥ 5000 nM | 1420 nM | 24.4 nM | 32.7 nM | 2.6 | 1.4 | – | – | – | –
C=CC(=O)N1CCN(c2ccc3ncnc(Nc4ccc(Oc5cnc6c(c5)ncn6C)c(C)c4F)c3n2)CC1(C)C [Example 247, 1-(4-(4-((2-fluoro-3-methyl-4-((3-methyl-3H-imidazo[4,5-b]pyridin-6-yl)oxy)phenyl)amino)pyrido[3,2-d]pyrimidin-6-yl)-2,2-dimethylpiperazin-1-yl)prop-2-en-1-one] | ≥ 5000 nM | ≥ 10000 nM | 71.5 nM | 8.9 nM | 1.9 | 0.8 | – | – | – | –
C=CC(=O)N1CCN(c2ccc3ncnc(Nc4ccc(Oc5ccn6ncnc6c5)c(Cl)c4F)c3n2)C[C@@H]1C1CC1 [Example 287] | – | – | – | – | 1.7 | 1 | 1960 nM | 1100 nM | 12.4 nM | 9.8 nM
C=CC(=O)N1CC[C@H]2C[C@H](c3ccc4ncnc(Nc5cc(C)c(Oc6ccn7ncnc7c6)cc5F)c4n3)C[C@H]21 (racemic) [Example 205, rac-1-((3aR,5S,6aR)-5-(4-((4-([1,2,4]triazolo[1,5-a]pyridin-7-yloxy)-2-fluoro-5-methylphenyl)amino)pyrido[3,2-d]pyrimidin-6-yl)hexahydrocyclopenta[b]pyrrol-1(2H)-yl)prop-2-en-1-one] | 2560 nM | 2420 nM | 58.7 nM | 24 nM | 4.5 | 1.2 | – | – | – | –
C=CC(=O)N1C[C@@H](c2ccc3ncnc(Nc4ccc(Oc5ccc6c(c5)ncn6C)c(C)c4F)c3n2)C[C@@H]1C [Example 191, 1-((2S,4S)-4-(4-((2-fluoro-3-methyl-4-((1-methyl-1H-benzo[d]imidazol-5-yl)oxy)phenyl)amino)pyrido[3,2-d]pyrimidin-6-yl)-2-methylpyrrolidin-1-yl)prop-2-en-1-one] | 2900 nM | 1820 nM | 26.7 nM | 15 nM | 2.5 | 0.9 | – | – | – | –
C=CC(=O)N1C[C@@H](c2ccc3ncnc(Nc4ccc(Oc5ccn6ncnc6c5)c(C)c4F)c3n2)C[C@@H]1C (mixture of isomers) [Example 385] | – | – | – | – | 5 | 1.3 | 1950 nM | 848 nM | 28.3 nM | 29.4 nM
C=CC(=O)N1CCC(c2nc3c(Nc4ccc(Oc5ccc6c(c5)ncn6C)c(C)c4)ncnc3cc2OC)CC1 [Example 42, 1-(4-(7-methoxy-4-((3-methyl-4-((1-methyl-1H-benzo[d]imidazol-5-yl)oxy)phenyl)amino)pyrido[3,2-d]pyrimidin-6-yl)piperidin-1-yl)prop-2-en-1-one] | ≥ 5000 nM | 778 nM | 14.7 nM | 17 nM | 2.9 | 2.5 | – | – | – | –
C=CC(=O)N1CCC[C@@H](c2ccc3ncnc(Nc4ccc(Oc5ccc6c(c5)ncn6C)c(C)c4F)c3n2)CC1 (racemic) [Example 147, rac-(R)-1-(4-(4-((2-fluoro-3-methy-4-((1-methyl-1H-benzo[d]imidazol-5-yl)oxy)phenyl)amino)pyrido[3,2-d]pyrimidin-6-yl)azepan-1-yl)prop-2-en-1-one] | 2590 nM | 782 nM | 18.6 nM | 23 nM | 2.3 | 2.9 | – | – | – | –
C=CC(=O)N1CCN(c2ccc3ncnc(Nc4cc(C)c(Oc5ccc6c(c5)ncn6C)cc4F)c3n2)C[C@@H]1C1CC1 [Example 252] | – | – | – | – | 2.9 | 1 | ≥ 5000 nM | 4580 nM | 170 nM | 21.1 nM
